In patent publication US20130209515A1, “ANTI-INFECTIVE AND IMMUNOMODULATORY COMPOUNDS” (priority 2005, published 2013):
≈ marks a conversion by molar mass, not a printed value. Entries after “also recorded” stand apart in the source; their conditions may differ.

Key:
P. aeruginosa PA14 [1] = assay: Mouse burn and infection (BI) model, survival; type: in vivo, mice; settings: for average survival after 5 days: IV tail vein 100 μl of 10 mM, four days prior to burn/infection, n=8-10, control 10% (FIG. 9); for final mice survival rate at 7 days post burn and infection: single IV injection at 6 hrs (100 μl 20 mM), control 10% (FIG. 24)
Experimental: Burn wound infection in mice can be established by subcutaneous or topical administration of the bacteria to the sites of the burn. […] Six-week old CD-1 male mice were used.
To induce infection, the mice were placed under general anesthesia via intraperitonial injection of 40 mg/kg Pentobarbital, the ventral surface was shaved, and a central skin fold elevated was simultaneously compressed from both sides for 5 seconds using two 2×2 cm metal blocks preheated to 95-100° C., to produce a non-lethal 5-8% full thickness burn with negligible focal necrosis of the underlying muscle or damage to underlying visceral organs. IP saline was administered for fluid resuscitation for ≧5% total body surface burns: avoiding vital structures, saline was injected into the left lower quadrant of the abdominal area of the anesthetized animal post-burn. This burn procedure was followed by mid-eschar inoculation of 100 μL of bacterial suspension containing ˜5×10^5 CFU. The animals were returned to their cages and provided mouse chow and water ad libitum. Animals typically recover from the anesthesia within 20 minutes post-administration. Criteria used to evaluate anesthesia recovery are state of alertness, mobility, and reaction to surrounding stimuli. Mice were monitored twice a day for symptoms and deaths, with increased monitoring every 6-8 hours during the period of greatest potential for infection and clinical disease.
The mouse full-thickness skin thermal injury infection model was used to test if 2AA restricts P, aeruginosa virulence. This model is predictable and reproducible; clinically relevant; and can lead to MODS and mortality. Briefly, a ˜15% total burn surface area (TBSA) thermal scalding injury is produced on the abdominal skin, leaving the underlying muscle intact, and the inoculum is delivered into the scald eschar. […]

P. aeruginosa = P. aeruginosa growth kinetics (spectrophotometric analysis at 600 nm); type: cell-based, Pseudomonas aeruginosa; settings: for bacterial growth (PA14): FIG. 23B
From the text: P. aeruginosa strains include wild-type (PA14, see Rahme et al., Science 268:1899-1902, 1995); a PA14 mvfR mutant (Cao et al., Proc. Natl. Acad. Sci. USA 98:14613-14618, 2001); a pqsE deletion mutant, generated via pEX18Ap allelic replacement by using sucrose selection (Hoang et al., Gene 212:77-86, 1998), resulting in a 570-bp nonpolar deletion covering 65% of the sequence (Déziel et al. PNAS); and the pqsA (U479) TnphoA mutant obtained from the PA14 Transposon Insertion Mutant Database. Bacteria were grown in LB broth or on 1.5% Bacto-agar (Difco) LB plates. Freshly plated cells served as inoculum.
P. aeruginosa was grown in the presence of 2 mM of 2′-aminoacetophenone (2AA), 3′-aminoacetophenone (3AA), 4′-aminoacetophenone (4AA), or 2′-nitroacetophenone (2NA), or in the absence of any of these compounds (control). Bacterial growth was followed over 26 hours by spectrophotometric analysis at 600 nm.
Bacterial growth was also followed over 35 hours by spectrophotometric analysis at 600 nm.

MvfR = molecular target: T1, MvfR (Pseudomonas aeruginosa, UniProt Q9I4X0); assay: MvfR binding to radiolabeled pqsA promoter DNA fragment (gel shift); settings: 40 pM ligand, E. coli cell lysate containing MvfR (FIGS. 20A, 20B)
T1 construct: made in house; host or cells: E. coli (cell lysate, not purified)
Experimental: FIGS. 20A and 20B show binding of MvfR to the pqsA promoter. FIG. 20A is a gel showing that MvfR binds to the pqsA promoter in the absence of HHQ or PQS, but that binding is increased in the presence of HHQ or PQS. A ^32P-labeled 174-bp DNA fragment containing the pqsA promoter region was mixed with E. coli cell lysate containing MvfR minus ligand (lanes 2-3); plus 40 pM HHQ (lanes 4-5); or plus 40 pM PQS (lanes 6-7). Protein added per reaction: lane 1, 0 ng/μl; lanes 2, 4, and 6, 30 ng/μl; and lanes 3, 5, and 7, 60 ng/μl. HHQ and PQS were added at the final concentration of 40 pM. Reaction mixtures were electrophoresed on 5% non-denatured polyacrylamide gels. FIG. 20B is a graph showing the densitometry of shifted bands.
To determine if HHQ potentiates MvfR DNA-binding, a 174-bp radiolabeled pqsA promoter region DNA fragment containing the potential LysR-box sequence was mixed with E. coli cell lysate containing MvfR.

[2] = tested on: pqsA-LacZ (MvfR-dependent pqs operon transcription); assay: pqsA-LacZ expression (β-galactosidase activity); type: cell-based, Pseudomonas aeruginosa; settings: PA14 pqsH/pqsA double mutant, compound added at OD600 1.0 (FIG. 19)
Experimental: To assess the effect of this compound on bacteria, we analyzed the production of HAQs in the presence of 2AA using LC/MS. The bacteria were propagated in the presence of 3 mM 2AA, culture media was collected at different time points, and the HHQ, PQS and HQNO production was measured in the supernatant. […] Since 2AA addition to the P. aeruginosa culture inhibits the production of HHQ and PQS, we assessed the transcription from the pqs operon using a pqsA-LacZ fusion.
To further, understand the mechanism of inhibition of the pqs operon by 2AA, we carried out competition assays of PQS and HHQ with 2AA. The expression of pqsA-LacZ in pqsApqsH double mutants was assessed. Bacteria were grown to an OD600 of 1.0 and HHQ and PQS were added either alone or with 2AA. LacZ expression was assayed at different stages of the growth, using standard protocols.
To determine whether HHQ activates MvfR expression, we generated a PA14pqsH/pqsA double mutant that lacks all HAQ production, and assessed pqsA-lacZ activity in the absence and presence of HHQ and PQS.

PqsA = molecular target: T2, PqsA (Pseudomonas aeruginosa, UniProt Q9I4X3); assay: Anthranilic acid accumulation and AA competition in PA14 cultures; type: cell-based; settings: for accumulation of anthranilic acid: PA14 culture with inhibitor vs control (FIG. 31); for effect of increasing concentrations of AA on inhibition of HAQ production: culture containing 1.5 mM inhibitor (FIG. 32)
T2 construct: endogenous in cells; host or cells: P. aeruginosa PA14 cultures
From the text: In P. aeruginosa anthranilic acid is also produced by the enzymatic systems PhnAB or TrpEG. […] This accumulation could be due to inhibition of PqsA or of any enzyme downstream in the HAQ biosynthesis. […] This reversal could only be explained by a competitive inhibition of an enzyme acting on AA. Because pqsA is the only enzyme of the pqsA-E operon to present similarities with enzymes involved in the activation of aromatic acid group, like the one found in anthranilic acid, we conclude that these inhibitors act on PqsA in a competitive manner with its substrate AA.

[3] = tested on: 4-hydroxy-2-alkylquinoline (HAQ) production; type: cell-based, Pseudomonas aeruginosa
pyocyanin production = assay: Pyocyanin production; type: cell-based, Pseudomonas aeruginosa
physchem = settings: saline or isotonic
P. aeruginosa PA14 [4] = assay: PA14 systemic spread in BI mice (cfu in muscle and blood); type: in vivo
Experimental: Furthermore, 6-FABA, 6CABA, and 4CABA efficacy in limiting PA14 systemic spread was assessed by comparing burn mice infected with PA14 and then treated with the compounds at 6 hr BI with control untreated BI mice. For each experimental set of n=18, 6 mice were sacrificed at 24 hr, and bacteria numbers were determined in muscle tissue underlaying or adjacent to the […] site and in blood. The inoculation procedure used in the thermal injury model greatly limits the initial delivery of bacteria to blood and muscle, so bacteria in these tissues reflect post-infection systemic spread.
In an experiment to determine the whether 6-fluoro-2-aminobenzoic acid (6FABA) affects the systemic spread of P. aeruginosa cells in a mouse burn/infection model, the results of which are shown in FIGS. 28A and 28B, 15 mice were treated with 100 μL of a 20 mM solution of 6-FABA 6 hrs or 12 hours post-burn and infection, and the PA14 cfu/mg of tissue (i.e., in blood and in muscle adjacent to the burn and infection) was determined at 24 hours and 36 hours post-burn.

[5] = Toxicity of IV 6-FABA in burned mice; type: in vivo
Experimental: Initial experiments were aimed at defining an appropriate mouse administration protocol for 6-FABA, with regard to concentration, time of administration following infection, and inhibition of virulence. […] Accordingly, burn and PA14 infected (BI) mice were subsequently administered a single injection of 20 mM 6-FABA at 6 or 12 hr post BI; and double injections at 6 and 24 hr BI.

[6] = 2 mM compound, followed over 26 hours at 600 nm (FIG. 4)

T2 sequence (Q9I4X3 whole entry): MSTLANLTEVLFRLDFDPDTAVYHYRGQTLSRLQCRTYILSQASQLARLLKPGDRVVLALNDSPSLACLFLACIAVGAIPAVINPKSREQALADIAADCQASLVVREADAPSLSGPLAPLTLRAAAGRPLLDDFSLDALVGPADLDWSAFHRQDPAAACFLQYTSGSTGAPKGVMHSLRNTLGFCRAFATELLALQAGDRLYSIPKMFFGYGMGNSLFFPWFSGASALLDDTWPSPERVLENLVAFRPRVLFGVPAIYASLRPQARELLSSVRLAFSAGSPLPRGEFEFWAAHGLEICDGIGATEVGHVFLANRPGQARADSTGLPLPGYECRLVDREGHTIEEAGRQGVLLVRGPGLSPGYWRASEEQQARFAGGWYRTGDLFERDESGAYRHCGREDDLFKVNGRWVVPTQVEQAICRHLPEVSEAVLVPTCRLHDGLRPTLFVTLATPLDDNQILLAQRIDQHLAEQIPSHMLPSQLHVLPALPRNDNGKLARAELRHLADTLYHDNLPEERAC
T1 sequence (Q9I4X0 whole entry, the tested form may be a part): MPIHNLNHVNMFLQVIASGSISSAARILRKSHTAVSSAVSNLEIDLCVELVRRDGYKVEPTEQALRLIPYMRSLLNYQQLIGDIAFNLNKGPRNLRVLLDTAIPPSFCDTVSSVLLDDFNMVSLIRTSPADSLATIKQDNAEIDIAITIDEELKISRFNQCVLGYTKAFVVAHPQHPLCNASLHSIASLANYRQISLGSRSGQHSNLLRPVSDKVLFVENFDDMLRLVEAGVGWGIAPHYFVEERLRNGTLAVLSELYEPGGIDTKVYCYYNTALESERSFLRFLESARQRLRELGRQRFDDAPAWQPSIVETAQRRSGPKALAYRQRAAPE

CC(=O)c1cccc(N)c1 [3AA, 3′-aminoacetophenone]
average survival after 5 days (P. aeruginosa PA14 [1]): 50% | Bacterial growth (P. aeruginosa; [6]): only slightly retarded

CCCCCCCc1cc(O)c2ccccc2n1 [HHQ, 4-hydroxy-2-heptylquinoline, reference compound]
MvfR-pqsA promoter binding (MvfR): potentiate MvfR-pqsA promoter binding, with weaker activity seen with HHQ versus PQS | MvfR-dependent pqsA-lacZ activity [2]: induce MvfR-dependent pqsA-lacZ activity

Nc1cccc(Cl)c1C(=O)O [6-CABA, 6-chloro-2-aminobenzoic acid]
accumulation of anthranilic acid (PqsA): transient accumulation | effect of increasing concentrations of AA on inhibition of HAQ production (PqsA): reversed the inhibition | HAQ production / HAQs synthesis [3]: inhibited HAQ production; also recorded: completely halted | inhibition of 4-hydroxy-2-alkylquinoline (HAQ) production [3]: potent inhibitors | production of the principal members of the three main HAQ families (HHQ, HQNO, PQS) [3]: dramatically decreased | final mice survival rate at 7 days post burn and infection (P. aeruginosa PA14 [1]): ~40% | bacterial growth (PA14) (P. aeruginosa): without affecting bacterial growth; also recorded: does not inhibit PA14 growth | pyocyanin production (pyocyanin production): without abrogating pyocyanin production

CC(=O)c1cccc(O)c1N [2-amino-3 hydroxy acetophenone]
protection (survival curves) (P. aeruginosa PA14 [1]; 10 mM solutions IV 4 days pre-BI (FIGS. 11A, 11B)): decreased protective efficacy versus 2AA

CC(=O)c1ccc(N)cc1 [4AA, 4′-aminoacetophenone]
average survival after 5 days (P. aeruginosa PA14 [1]): 50% | Bacterial growth (P. aeruginosa; [6]): only slightly retarded

Nc1cc(Cl)ccc1C(=O)O [4-CABA, 4-chloro-2-aminobenzoic acid]
accumulation of anthranilic acid (PqsA): transient accumulation | HAQ production / HAQs synthesis [3]: completely halted | inhibition of 4-hydroxy-2-alkylquinoline (HAQ) production [3]: potent inhibitors | production of the principal members of the three main HAQ families (HHQ, HQNO, PQS) [3]: dramatically decreased | final mice survival rate at 7 days post burn and infection (P. aeruginosa PA14 [1]): ~50% | Bacterial growth (P. aeruginosa; 1.5 mM compound, followed over 35 hours at 600 nm (FIG. 6)): only slightly retarded | bacterial growth (PA14) (P. aeruginosa): without affecting bacterial growth | pyocyanin production (pyocyanin production): without abrogating pyocyanin production

Nc1cc(F)ccc1C(=O)O [4-FABA, 4-fluoro-2-aminobenzoic acid]
inhibition of 4-hydroxy-2-alkylquinoline (HAQ) production [3]: potent inhibitors

COC(=O)c1ccccc1N [MA, methyl anthranilate, reference compound]
PQS production [3]: prevents PQS production | levels of HAQs [3]: reduces the levels of several HAQs | production of N-oxides [3]: production of N-oxides at very high concentrations | PA14 growth (P. aeruginosa; methylanthranilate (FIG. 25B)): inhibits PA14 growth

CCCCCCCc1nc2ccccc2c(O)c1O [PQS, 3,4-dihydroxy-2-heptylquinoline, reference compound]
MvfR-pqsA promoter binding (MvfR): potentiate MvfR-pqsA promoter binding | MvfR-dependent pqsA-lacZ activity [2]: induce MvfR-dependent pqsA-lacZ activity

Nc1cccc(F)c1C(=O)O [6-FABA, 6-fluoro-2-aminobenzoic acid]
accumulation of anthranilic acid (PqsA): transient accumulation | effect of increasing concentrations of AA on inhibition of HAQ production (PqsA): reversed the inhibition | HAQ production / HAQs synthesis [3]: inhibited HAQ production; also recorded: completely halted | inhibition of 4-hydroxy-2-alkylquinoline (HAQ) production [3]: potent inhibitors; also recorded: potently inhibit | production of the principal members of the three main HAQ families (HHQ, HQNO, PQS) [3]: dramatically decreased; also recorded: strongly inhibited | time course of mortality (P. aeruginosa PA14 [1]; single IV injection 20 mM at 6 hr BI (FIG. 26)): delayed mortality | survival (P. aeruginosa PA14 [1]; single IV injection 20 mM at 6 hr BI, control 10% (FIG. 26)): 40% | survival (P. aeruginosa PA14 [1]; single IV injection 20 mM at 12 hr BI (FIG. 26)): up to 60% | final mice survival rate at 7 days post burn and infection (P. aeruginosa PA14 [1]): ~35% | bacterial growth (PA14) (P. aeruginosa): without affecting bacterial growth | pyocyanin production (pyocyanin production): without abrogating pyocyanin production | solubility (physchem): 20 mM (≈ 3100 µg/mL) | systemic dissemination of P. aeruginosa (cfu/mg in muscle adjacent to burn) (P. aeruginosa PA14 [4]; 100 μL of 20 mM 6-FABA post-burn and infection (FIG. 28A)): limits significantly the systemic dissemination | bacteria in blood (P. aeruginosa PA14 [4]; 100 μL of 20 mM 6-FABA, blood at 24 hrs (FIG. 28B)): no bacteria are detected | toxicity (deaths) ([5]; second IV injection of 20 mM at 12 or 18 hr): a significant number of mice die | mortality ([5]; second IV injection of 20 mM at 24 hr): 10% | toxicity ([5]; single IV injection 100 μl 20 mM, 6 hrs post-burn): non-toxic

CC(=O)c1ccccc1[N+](=O)[O-] [2NA, 2′-nitroacetophenone]
average survival after 5 days (P. aeruginosa PA14 [1]): 50% | Bacterial growth (P. aeruginosa; [6]): only slightly retarded

Nc1ccc(F)cc1C(=O)O [5-FABA, 5-fluoro-2-aminobenzoic acid]
HAQ production / HAQs synthesis [3]: inhibited HAQ production | inhibition of 4-hydroxy-2-alkylquinoline (HAQ) production [3]: potent inhibitors
